As usually defined, the IC50 is the point on the concentration scale where inhibition reaches its midpoint.

One data set concerns MDA-MB-231. In words: Antiproliferative activity against human MDA-MB-231 cells assessed as inhibition of cell growth incubated for 24 hrs by MTT assay. It is filed as functional, cell-based. The note with it: MDA-MB-231, 24 h. (In general: Formazan colour is commonly taken as a measure of viable cells.)
A further data set has as its system MCF7. In words: Antiproliferative activity against human MCF7 cells assessed as inhibition of cell growth incubated for 24 hrs by MTT assay. The settings on record: MCF7, 24 h. It is filed as functional, cell-based.
A further data set relates to Rattus norvegicus. The data set is described as follows: Toxicity in Sprague-Dawley rat inoculated with rat LA7 cells assessed as increase in uterine tissue at 10 mg/kg administered daily for 21 days. It is filed as organism-based. The settings on record: in vivo, 504 h, time 21 day.

For the compound `CCN1c2ccccc2OC[C@@H]1Cc1ccc(OCCN2CCCC2)cc1`, the IC50 with MDA-MB-231 was more than 50 µM; with MCF7, 45.8 µM.
The matching figures for `CCN(CC)CCOc1ccc(CN2c3ccccc3SC[C@@H]2Cc2ccc(OC)cc2)cc1`: 26.7 µM and 31.7 µM.
Turning to `Oc1ccc(C[C@H]2COc3ccccc3N2Cc2ccccc2)cc1`, the IC50 in the data set on MDA-MB-231 came to 32.5 µM; in the data set on MCF7, 41.6 µM.
The like results for `Oc1ccc(C[C@H]2COc3ccccc3N2)cc1` were, in that order, 47.4 µM and more than 50 µM.
The like results for `COc1ccc(C[C@H]2COc3cc(F)c(F)cc3N2Cc2ccc(OCCN3CCCC3)cc2)cc1` were, in that order, 3.22 µM and 3.35 µM.
`COc1ccc(C[C@H]2COc3ccc(OC)cc3N2Cc2ccc(OCCN3CCCCC3)cc2)cc1`: the IC50 in the data set on MDA-MB-231 stood at 2.64 µM; in the data set on MCF7, 2.6 µM.
The matching figures for `CC(C)N(CCOc1ccc(C[C@H]2COc3ccccc3N2Cc2ccccc2)cc1)C(C)C`: more than 50 µM and 40.4 µM.
On to `CCN(CC)CCOCCOc1ccc(CN2c3ccccc3OC[C@@H]2Cc2ccc(OC)cc2)cc1`, for which the figures for the IC50 in the data set with MDA-MB-231 and in the data set on MCF7 were 45 µM and 39.1 µM, respectively.
For the compound `c1ccc(CN2c3ccccc3OC[C@@H]2Cc2ccc(OCCN3CCCCC3)cc2)cc1`, the IC50 was more than 50 µM in the data set with MDA-MB-231 and 22 µM with MCF7.
Regarding `CCN(CC)CCOc1ccc(CN2c3ccccc3OC[C@@H]2Cc2ccc(OC)cc2)cc1`, the half-maximal inhibitory concentration (IC50) stood at 0.97 µM with MDA-MB-231 and 6.95 µM in the data set on MCF7.
Take `COc1ccc(C[C@H]2COc3ccc(C(F)(F)F)cc3N2Cc2ccc(OCCN3CCCC3)cc2)cc1`: the results for the IC50 in the data set with MDA-MB-231 and with MCF7 were 6.89 µM and 6.86 µM, respectively.
On to `COc1ccc(C[C@H]2COc3ccccc3N2Cc2ccc(OCCOCCN3CCCC3)cc2)cc1`, for which the values for the IC50 in the data set on MDA-MB-231 and in the data set with MCF7 were more than 50 µM and 21.3 µM, respectively.
Turning to `COc1ccc(C[C@H]2CSc3ccccc3N2Cc2ccc(OCCN(C(C)C)C(C)C)cc2)cc1`, the IC50 in the data set with MDA-MB-231 and in the data set on MCF7 was more than 50 µM throughout.
Consider `COc1ccc(C[C@H]2COc3ccccc3N2Cc2ccc(OCCN3CCCCC3)cc2)cc1`, for which the IC50 stood at 11 µM in the data set with MDA-MB-231 and 0.68 µM in the data set on MCF7.
Take `COc1ccc(C[C@@H]2COc3ccccc3N2Cc2ccc(OCCN3CCCC3)cc2)cc1`: the IC50 with MDA-MB-231 was found to be 6.52 µM; in the data set with MCF7, 7.03 µM.
The like results for `COc1ccc(C[C@H]2COc3ccccc3N2Cc2ccc(OCCO)cc2)cc1` were, in that order, more than 50 µM and 43.7 µM.
The like results for `COc1ccc(C[C@H]2COc3ccccc3N2Cc2ccc(OCCOCCN3CCCCC3)cc2)cc1` were, in that order, more than 50 µM and 7.81 µM.
As for `COc1ccc(C[C@H]2CSc3ccccc3N2Cc2ccc(OCCN3CCCCC3)cc2)cc1`, the IC50 in the data set with MDA-MB-231 amounted to 12.2 µM; in the data set with MCF7 it was 17.4 µM.
Consider `CC/C(=C(\c1ccccc1)c1ccc(OCCN(C)C)cc1)c1ccccc1` [TAMOXIFEN], for which the IC50 in the data set on MCF7 was 5.4 µM. The Activity entry in the data set on Rattus norvegicus is reported as “Toxic”.
On to `COc1ccc(C[C@@H]2COc3ccccc3N2Cc2ccc(OCCN3CCCCC3)cc2)cc1`, for which the IC50 with MDA-MB-231 is 4.87 µM; in the data set with MCF7 it was 6.3 µM.
In the case of `COc1ccc(C[C@H]2COc3ccccc3N2C(=O)c2ccc(N)cc2)cc1`, the IC50 in the data set with MDA-MB-231 and with MCF7 was more than 50 µM in each case.
In the case of `COc1ccc(C[C@H]2COc3ccccc3N2Cc2ccc(OS(=O)(=O)c3ccc(C)cc3)cc2)cc1`, the IC50 in the data set on MDA-MB-231 and in the data set with MCF7 was more than 50 µM each time.
Turning to `COc1ccc(C[C@H]2COc3ccc(F)cc3N2Cc2ccc(OCCN3CCCC3)cc2)cc1`, the results for the IC50 in the data set on MDA-MB-231 and with MCF7 were 3.23 µM and 3.34 µM, respectively.
In the case of `COc1ccc(C[C@H]2COc3ccccc3N2Cc2ccccc2)cc1`, the IC50 with MDA-MB-231 and with MCF7 was more than 50 µM throughout.
For the compound `CN1c2ccccc2OC[C@@H]1Cc1ccc(OCCN2CCCCC2)cc1`, the IC50 in the data set with MDA-MB-231 and in the data set with MCF7 was more than 50 µM in each case.
Consider `COc1ccc(C[C@H]2COc3ccccc3N2Cc2ccc(OCCN(C)C)cc2)cc1`, for which the IC50 is 11.1 µM with MDA-MB-231 and 6.75 µM in the data set with MCF7.
`CN1c2ccccc2OC[C@@H]1Cc1ccc(OCCN2CCCC2)cc1`: the IC50 with MDA-MB-231 and with MCF7 was more than 50 µM in each case.
Consider `CN(C)CCOc1ccc(C[C@H]2COc3ccccc3N2Cc2ccccc2)cc1`, for which the IC50 is more than 50 µM in the data set with MDA-MB-231 and 20.5 µM in the data set on MCF7.
With `COc1ccc(C[C@H]2COc3ccccc3N2)cc1`, the concentration for half-maximal inhibition (IC50) with MDA-MB-231 is 36.4 µM; in the data set with MCF7, more than 50 µM.
Regarding `COc1ccc(C[C@H]2COc3ccccc3N2Cc2ccc(OCCN3CCCCCC3)cc2)cc1`, the IC50 worked out at 10.1 µM in the data set with MDA-MB-231 and 18.1 µM in the data set with MCF7.
On to `CCN1c2ccccc2OC[C@@H]1Cc1ccc(O)cc1`, for which the figures for the IC50 in the data set on MDA-MB-231 and in the data set on MCF7 were 43.6 µM and 30.4 µM, respectively.
Regarding `Oc1ccc(C[C@H]2COc3ccccc3N2Cc2ccc(O)cc2)cc1`, the figures for the IC50 in the data set with MDA-MB-231 and in the data set on MCF7 were 40.2 µM and 24.4 µM, respectively.
Consider `COc1ccc(C[C@H]2COc3ccccc3N2Cc2ccc(OCCN3CCOCC3)cc2)cc1`, for which the figures for the IC50 with MDA-MB-231 and in the data set on MCF7 were 31.3 µM and 83.6 µM, respectively.
The like results for `COc1ccc(C[C@H]2COc3ccccc3N2Cc2ccc(OCCOCCN(C(C)C)C(C)C)cc2)cc1` were, in that order, more than 50 µM and 5.5 µM.
As for `COc1ccc(C[C@H]2COc3ccc(OC)cc3N2Cc2ccc(OCCN3CCCC3)cc2)cc1`, the IC50 in the data set on MDA-MB-231 stood at 3.59 µM; in the data set with MCF7 it was 3.34 µM.
As for `CN(C)CCOc1ccc(C[C@H]2COc3ccccc3N2C)cc1`, the IC50 in the data set with MDA-MB-231 and with MCF7 was more than 50 µM throughout.
With `COc1ccc(C[C@H]2COc3ccc(C(F)(F)F)cc3N2Cc2ccc(OCCN3CCCCC3)cc2)cc1`, the IC50 in the data set on MDA-MB-231 is 6.36 µM; in the data set with MCF7, 6.1 µM.
In the case of `COc1ccc(C[C@H]2COc3cc(F)c(F)cc3N2Cc2ccc(OCCN3CCCCC3)cc2)cc1`, the IC50 was found to be 4.86 µM in the data set on MDA-MB-231 and 5.05 µM in the data set with MCF7.
With `COc1ccc(C[C@H]2CSc3ccccc3N2Cc2ccc(OCCN3CCCC3)cc2)cc1`, the IC50 in the data set with MDA-MB-231 is 10.9 µM; with MCF7, 30.8 µM.
Regarding `c1ccc(CN2c3ccccc3OC[C@@H]2Cc2ccc(OCCN3CCCC3)cc2)cc1`, the results for the IC50 in the data set on MDA-MB-231 and in the data set with MCF7 were more than 50 µM and 21.1 µM, respectively.
Regarding `COc1ccc(C[C@H]2CSc3ccccc3N2Cc2ccc(OCCN(C)C)cc2)cc1`, the IC50 with MDA-MB-231 came out at 25.5 µM; in the data set with MCF7, 28.8 µM.
The like results for `COc1ccc(C[C@H]2COc3ccc(F)cc3N2Cc2ccc(OCCN3CCCCC3)cc2)cc1` were, in that order, 2.92 µM and 3.61 µM.
On to `COc1ccc(C[C@H]2COc3ccccc3N2Cc2ccc(OCCN(C(C)C)C(C)C)cc2)cc1`, for which the IC50 turned out to be 0.83 µM in the data set on MDA-MB-231 and 77.6 µM in the data set with MCF7.
Take `COc1ccc(C[C@H]2COc3ccccc3N2C)cc1`: the IC50 in the data set on MDA-MB-231 and with MCF7 was more than 50 µM each time.
On to `CC(=O)O[C@H]1C(=O)[C@@]2(C)[C@H]([C@H](OC(=O)c3ccccc3)[C@]3(O)C[C@H](OC(=O)[C@H](O)[C@@H](NC(=O)c4ccccc4)c4ccccc4)C(C)=C1C3(C)C)[C@]1(OC(C)=O)CO[C@@H]1C[C@@H]2O` [PACLITAXEL], for which the IC50 in the data set with MDA-MB-231 amounted to 3.77 µM.
`COc1ccc(C[C@H]2COc3ccccc3N2Cc2ccc(O)cc2)cc1`: the IC50 in the data set on MDA-MB-231 was determined as 40.2 µM; in the data set on MCF7 it was 24.4 µM.

The record behind these values is ChEMBL document CHEMBL5055666, “Tyrosine-Derived Novel Benzoxazine Active in a Rat Syngenic Mammary Tumor Model of Breast Cancer” (J Med Chem, 2021).
